The subject of assay [1] is control sera (pooled serum of ten healthy LUMC hospital workers; commercial negative donor pooled serum from the Dutch bloodbank). Format: binding, human. The arrangement: Binding of Control serum LUMC to linear peptides / Binding of Control serum Blood-bank to linear peptides / Binding of Control serum LUMC to looped peptides / Binding of Control Serum Blood-Bank to Looped peptides / Binding of Control serum LUMC to linear peptides of the protein M of SARS-CoV Urbani / Binding of Control serum Blood-bank to linear peptides of the protein M of SARS-CoV Urbani / Binding of Control serum LUMC to looped peptides of the protein M of SARS-CoV Urbani / Binding of Control Serum Blood-Bank to Looped peptides of the protein M of SARS-CoV Urbani: unit not given here.

Assay [2] deals with antibodies in sera from SARS patients (sera 1a, 1b, 2, 6, 37, 62, London, SARS-yellow, SARS-green). Format: binding, human. The arrangement: Binding of serum 6 to linear peptides of protein X1 of SARS-CoV Urbani / Binding of serum 37 to linear peptides of protein X1 of SARS-CoV Urbani / Binding of serum 6 to looped/cyclic peptide (PEPSCAN-ELISA) / Binding of serum 37 to looped/cyclic peptide (PEPSCAN-ELISA) / Binding of serum 37 to looped/cyclic peptides of protein X1 of SARS-CoV Urbani / Binding of serum 6 to linear peptides of protein X2 / Binding of serum 37 to linear peptides of protein X2 / Binding of serum 37 to looped/cyclic peptides of protein X2 of SARS-CoV Urbani / Binding of serum 6 to linear peptides of protein M of SARS-CoV Urbani / Binding of serum 37 to linear peptides of protein M of SARS-CoV Urbani / Binding of serum 6 to looped/cyclic peptides of protein M of SARS-CoV Urbani / Binding of serum 37 to looped/cyclic peptides of protein M of SARS-CoV Urbani / Binding of serum 6 to linear peptides of protein X3 of SARS-CoV Urbani / Binding of serum 37 to linear peptides of protein X3 of SARS-CoV Urbani / Binding of serum 37 to looped/cyclic peptides of protein X3 of SARS-CoV Urbani / Binding of serum 6 to linear peptides of protein X4 of SARS-CoV Urbani / Binding of serum 37 to linear peptides of protein X4 of SARS-CoV Urbani / Binding of serum 37 to looped/cyclic peptides of protein X4 of SARS-CoV Urbani / Binding of serum 6 to linear peptides of protein X5 of SARS-CoV Urbani / Binding of serum 37 to linear peptides of protein X5 of SARS-CoV Urbani / Binding of serum 37 to looped/cyclic peptides of protein X5 of SARS-CoV Urbani / Binding of serum 6 to linear peptides of protein N of SARS-CoV Urbani / Binding of serum 37 to linear peptides of protein N of SARS-CoV Urbani / Binding of serum 6 to linear peptide (PEPSCAN-ELISA) / Binding of serum 1a to looped/cyclic peptides of protein N of SARS-CoV Urbani / Binding of serum 1b to looped/cyclic peptides of protein N of SARS-CoV Urbani / Binding of serum 2 to looped/cyclic peptides of protein N of SARS-CoV Urbani / Binding of serum 6 to looped/cyclic peptides of protein N of SARS-CoV Urbani / Binding of serum 37 to looped/cyclic peptides of protein N of SARS-CoV Urbani / Binding of serum 62 to looped/cyclic peptides of protein N of SARS-CoV Urbani / Binding of serum London to looped/cyclic peptides of protein N of SARS-CoV Urbani / Binding of serum SARS-green to looped/cyclic peptides of protein N of SARS-CoV Urbani: unit not given here.

Assay [3] deals with rabbit serum obtained by immunizing a rabbit with the SARS-CoV strain Frankfurt 1. The assay is classed as binding. On the set-up: Binding of a rabbit serum to linear peptides / Binding of a rabbit serum to looped peptides / Rabbit serum linear peptides / Rabbit serum looped peptides / Binding of a rabbit serum to linear peptides of protein N of SARS-CoV Urbani (Rabbit serum linear peptides) / Binding of a rabbit serum to looped/cyclic peptides of protein N of SARS-CoV Urbani (Rabbit serum looped peptides): unit not given here.

Take PKFTTSLSLHKLLQT: in assay [1], the “Binding of Control Serum Blood-Bank to Looped peptides” value was found to be 0.7, the “Binding of Control serum Blood-bank to linear peptides” value is 0.7, the “Binding of Control serum LUMC to linear peptides” value is 0.4 and the “Binding of Control serum LUMC to looped peptides” value is recorded as 0.4. In assay [2], the “Binding of serum 1a to linear peptides of protein X2” value stood at 0.6, the “Binding of serum 1a to looped/cyclic peptides of protein X2 of SARS-CoV Urbani” value is recorded as 0.5, the “Binding of serum 1b to linear peptides of protein X2” value is 0.4 and the “Binding of serum 1b to looped/cyclic peptides of protein X2 of SARS-CoV Urbani” value amounted to 0.4. In assay [2], the “Binding of serum 2 to linear peptides of protein X2” value came to 0.5, the “Binding of serum 2 to looped/cyclic peptides of protein X2 of SARS-CoV Urbani” value came to 0.3, the “Binding of serum 6 to linear peptides of protein X2” value was 0.3 and the “Binding of serum 6 to looped/cyclic peptides of protein X2 of SARS-CoV Urbani” value is 0.3. Moreover, in assay [2], the “Binding of serum 37 to linear peptides of protein X2” value was 0.5, the “Binding of serum 37 to looped/cyclic peptides of protein X2 of SARS-CoV Urbani” value is 0.4, the “Binding of serum 62 to linear peptides of protein X2” value is 0.6 and the “Binding of serum 62 to looped/cyclic peptides of protein X2 of SARS-CoV Urbani” value turned out to be 0.6. In addition, in assay [2], the “Binding of serum London to linear peptides of protein X2” value is 0.4, the “Binding of serum London to looped/cyclic peptides of protein X2 of SARS-CoV Urbani” value is reported as 0.3, the “Binding of serum SARS-green to linear peptides of protein X2” value came out at 0.5 and the “Binding of serum SARS-green to looped/cyclic peptides of protein X2 of SARS-CoV Urbani” value was 0.3. In addition, in assay [2], the “Binding of serum SARS-yellow to linear peptides of protein X2” value is 0.3 and the “Binding of serum SARS-yellow to looped/cyclic peptides of protein X2 of SARS-CoV Urbani” value turned out to be 0.3. Further, in assay [3], the “Binding of a rabbit serum to linear peptides” value was determined as 0.2 and the “Binding of a rabbit serum to looped peptides” value is 0.4.
PLFLIVAALVFLILC: in assay [1], the “Binding of Control Serum Blood-Bank to Looped peptides” value came to 0.5, the “Binding of Control serum Blood-bank to linear peptides” value worked out at 0.4, the “Binding of Control serum LUMC to linear peptides” value is reported as 0.4 and the “Binding of Control serum LUMC to looped peptides” value worked out at 0.5. For the same sequence, in assay [2], the “Binding of serum 1a to linear peptides of protein X4 of SARS-CoV Urbani” value amounted to 0.5, the “Binding of serum 1a to looped/cyclic peptides of protein X4 of SARS-CoV Urbani” value stood at 0.5, the “Binding of serum 1b to linear peptides of protein X4 of SARS-CoV Urbani” value is on record as 0.4 and the “Binding of serum 1b to looped/cyclic peptides of protein X4 of SARS-CoV Urbani” value is recorded as 0.1. In assay [2], the “Binding of serum 2 to linear peptides of protein X4 of SARS-CoV Urbani” value turned out to be 0.3, the “Binding of serum 2 to looped/cyclic peptides of protein X4 of SARS-CoV Urbani” value was found to be 0.2, the “Binding of serum 6 to linear peptides of protein X4 of SARS-CoV Urbani” value is 0.3 and the “Binding of serum 6 to looped/cyclic peptides of protein X4 of SARS-CoV Urbani” value stood at 0.5. In addition, in assay [2], the “Binding of serum 37 to linear peptides of protein X4 of SARS-CoV Urbani” value was 0.6, the “Binding of serum 37 to looped/cyclic peptides of protein X4 of SARS-CoV Urbani” value was determined as 0.0, the “Binding of serum 62 to linear peptides of protein X4 of SARS-CoV Urbani” value was found to be 0.7 and the “Binding of serum 62 to looped/cyclic peptides of protein X4 of SARS-CoV Urbani” value was 0.1. In assay [2], the “Binding of serum London to linear peptides of protein X4 of SARS-CoV Urbani” value stood at 0.6, the “Binding of serum London to looped/cyclic peptides of protein X4 of SARS-CoV Urbani” value turned out to be 0.1, the “Binding of serum SARS-green to linear peptides of protein X4 of SARS-CoV Urbani” value is reported as 0.5 and the “Binding of serum SARS-green to looped/cyclic peptides of protein X4 of SARS-CoV Urbani” value is reported as 0.2. Also, in assay [2], the “Binding of serum SARS-yellow to linear peptides of protein X4 of SARS-CoV Urbani” value was 0.4 and the “Binding of serum SARS-yellow to looped/cyclic peptides of protein X4 of SARS-CoV Urbani” value came out at 0.1. In assay [3], the “Rabbit serum linear peptides” value stood at 0.4 and the “Rabbit serum looped peptides” value came out at 0.0.

The record behind these values is US20070128217A1 (priority 2003, published 2007).
